Reference: patent US10203334B2, “Methods and compositions related to nucleic acid binding assays” (Nubad, LLC, priority 2012, dated 2019)

Tests used:
[1] = system: A-site RNA oligonucleotide (SEQ ID No. 1); type: physicochemical, E. coli
Method: The effect of A-site rRNA oligonucleotide (SEQ ID No. 1) on the absorbance spectra of fluorescein-neomycin at pH 7.1 was recorded in FIG. 7. The absorbance spectra of 3.0 mM fluorescein-neomycin in 20 mM MOPSO, 0.4 mM EDTA, 50 mM NaCl at pH 7.1 with the addition of 0 mM (112), 1.1 mM (114), 2.2 mM (116) or 3.3 mM (118) of A-site oligonucleotide (SEQ ID NO. 1), respectively is shown in FIG. 7A. Absorbance at 490 nm of fluorescein-neomycin:A-site complex as function of pH is show in FIG. 7B, with 3.0 mM fluorescein-neomycin complexed with 3.3 mM A-site oligonucleotide (SEQ ID No. 1) in 20 mM MOPSO, 0.4 mM EDTA, 50 mM NaCl at the indicated pH values.
With increasing pH, fluorescein-neomycin undergoes a transition between mono-anion and di-anion species. Fluorescein-neomycin concentration was 10 μM in 100 mM NaCl, 10 mM SC, 0.5 mM EDTA. As indicated by its absorbance spectra in FIG. 8A, the F-neo transitions from a mono-anion to a di-anion with increasing pH. FIG. 8B compares the absorbance spectra between the mono-anion and di-anion species of fluorescein neomycin. […] The absorbance peak of about 490 nm in FIGS. 8A and 8B is consistent with the phenolate species of fluorescein. The pKa for the equilibrium of the phenol and phenolate forms of F-neo (42a) was measured by evaluating the absorbance spectrum as a function of pH and shown to be 6.84. […] When monitoring the absorption spectrum in the presence of the A-site RNA (SEQ ID No. 1), a reduction in A490 consistent with the change in pKa was observed. This A490 reduction is consistent with a shift in equilibrium towards the protonated non-fluorescent form of fluorescein-neomycin upon binding to A-site. […] This shift in pKa causes a change in the fluorescence intensity of F-neo (42a).
The following equilibrium can be used to explain the probe function: FHNeo+Base=F(−)Neo+BH^+ Eq. (2) where FHNeo represents the protonated form of F-neo (42a). Upon binding to A-site RNA, F(−)Neo is destabilized by the negative potential of the RNA backbone, shifting the equilibrium towards FHNeo. Thus the binding of F-neo (42a) to RNA raises the pKa, making F-neo (42a) a weaker acid.
The local electrostatic potential (Ψ) in the major groove is given by the following Equation 3. Ψ=−[R·T·ln 10/(NA·e)]ΔpKa Eq. (3) Where ΔpKa is the difference between the free Fluorescein-neomycin and the Fluorescein-neomycin in the presence of the electrostatic environment, R is the universal gas constant, T is the absolute temperature in kelvin, NA is the Avogadro constant, and e is the elementary charge. R=8.312 J mol−1K−1, T=298.2K, NA=6.023×10^23 and e=1.602×10^−19; Ψ is expressed in mV. […] Based on this Δpka of 0.86, the electrostatic potential of the microenvironment for the fluorescein moiety in the complex is determined to be −50.9 mV.

[2] = system: d(GGGGCCCC)2; assay: Fluorescein-neomycin fluorescence quenching by DNA duplex; type: binding; conditions: 1 μM probe, 10 mM SC, 0.5 mM EDTA, pH 6.8
Method: (§1) It has been shown that the fluorescence of a fluorescein-neomycin is quenched when bound to a nucleic acid target. In continued efforts to expand the applications of the fluorescein-neomycin conjugate, a fluorescence quenching study was performed to determine if the quenching of fluorescein-neomycin in the presence of DNA is representative of the neomycin affinity. Previous studies using the duplexes d(GGGGCCCC)2 and d(CCCCGGGG)2 have shown the binding is lower for d(CCCCGGGG)2. This has been shown from the ITC derived binding constants, FID studies, and electrostatic potential studies. […] For this reason the fluorescence quenching of fluorescein-neomycin with d(GGGGCCCC)2 and d(CCCCGGGG)2 was performed at three different buffer salt concentrations. […] Results from this study show here that the fluorescein-neomycin quenching can be applied to screening the 256 GC rich hairpins to identify which sequence neomycin has the highest affinity. Table 2 represents the change in fluorescence (%) values of fluorescein-neomycin with 1rdr d(GGGGCCCC)2 and d(CCCCGGGG)2 in 3 different buffer salt concentrations and the ratio between the change in fluorescence (%) values of F-neo with d(CCCCGGGG)2 compared to d(GGGGCCCC)2. Fluorescein-neomycin=1 μM, Buffer=10 mM SC, 0.5 mM EDTA, and either 50 mM NaCl, 100 mM NaCl, or 150 mM NaCl (pH=6.8). Experiment was performed in triplicate and the results were also polted in FIG. 10 showing the change in fluorescence (%) of fluorescein-neomycin with 1 equivalent d(GGGGCCCC)2 and d(CCCCGGGG)2 in 3 different buffer salt concentrations.

[3] = system: d(CCCCGGGG)2; assay: as above; type: binding; conditions: 1 μM probe, 10 mM SC, 0.5 mM EDTA, pH 6.8
Method: as §1

[4] = 50 mM NaCl, listed as Fluorescein-neomycin
[5] = 50 mM NaCl, listed as fluorescein-neomycin
[6] = 150 mM NaCl, listed as Fluorescein-neomycin
[7] = 150 mM NaCl, listed as fluorescein-neomycin

NCC1O[C@H](OC2C(O)C(OC3C(O)[C@H](N)CC(N)[C@H]3O[C@H]3OC(CN)[C@@H](O)C(O)C3N)O[C@@H]2CSCCNC(=O)CCSCC(=O)Nc2ccc(-c3c4ccc(=O)cc-4oc4cc(O)ccc34)c(C(=O)O)c2)C(N)C(O)[C@@H]1O (some centres unmarked) [F-neo (42a), Neomycin-Fluorescein Conjugate]
electrostatic potential of the microenvironment for the fluorescein moiety in the complex ([1]; calculated from Δpka (Eq. 3)): −50.9 mV | Δpka ([1]; complex versus free probe): 0.86 | apparent pKa of F-neo/A-site oligonucleotide complex ([1]; pH-dependent absorbance spectra): 7.7 | upward shift of the pKa upon binding of A-site ([1]; titration curve of A490): approximately one | ΔF (%) with 1rdr d(GGGGCCCC)2 [2, 4]: 73.97 ± 5.78% | ΔF (%) with 1rdr d(GGGGCCCC)2 [2, 5]: 73% | ΔF (%) with 1rdr d(GGGGCCCC)2 ([2]; 100 mM NaCl): 49.28 ± 1.12% | ΔF (%) with 1rdr d(GGGGCCCC)2 [2, 6]: 33.88 ± 3.33% | ΔF (%) with 1rdr d(GGGGCCCC)2 [2, 7]: 33% | ΔF (%) with 1rdr d(CCCCGGGG)2 [3, 4]: 47.75 ± 5.60% | ΔF (%) with 1rdr d(CCCCGGGG)2 [3, 5]: 47% | ΔF (%) with 1rdr d(CCCCGGGG)2 ([3]; 100 mM NaCl): 32.18 ± 0.42% | ΔF (%) with 1rdr d(CCCCGGGG)2 [3, 6]: 20.36 ± 2.76% | ΔF (%) with 1rdr d(CCCCGGGG)2 [3, 7]: 20%
